Results taken from patent US20210106674A1, “Gene Therapy For Mesothelioma” (The Trustees of the University of Pennsylvania, priority 2019, published 2021).
Marks after values point to notes of the source that are not given here.

Tests used:
[1] = system: MPM; conditions: published trial, Pem re-treat with pem; cited from earlier work
[2] = system: MPM; assay: Recent published trials of chemotherapy in MPM (historical comparison); type: in vivo; conditions: average of three published trials of pemetrexed re-treatment (103 patients)
[3] = system: purified mesothelin and extracts from allogeneic mesothelioma cell lines; assay: Immunoblotting with patient serum for induced anti-tumor antibodies; type: in vivo, Human; parameters: key to Antibody Response: 0 = no change; 1 = marginal changes; 2 = significant changes
Method: Enzyme-linked immunosorbent assays (ELISAs) were used to measure IFN-α2b levels (PBL Biomedical Labs; Piscataway, N.J.), as well as serum mesothelin-related protein (SMRP) levels (Fujirebio, Inc., Malvern, Pa.). Neutralizing adenovirus antibody titers (Nabs) were assessed as previously described (5). To detect induced humoral responses against tumor antigens, we performed immunoblotting against purified mesothelin and extracts from allogeneic mesothelioma cell lines using pre- and post-treatment serum as previously described (4-6). See Supplemental Methods for details.
To detect induced humoral responses against tumor antigens, we performed immunoblotting against purified mesothelin and extracts from allogeneic mesothelioma cell lines. Purified mesothelin was purchased from Raybiotech (Norcross, Ga.). Cell lines were derived from patient pleural fluid samples from previous clinical trials and were grown in culture as previously described (Sterman D H, Reico A, Haas A R, et al. A phase I trial of repeated Intrapleural adenoviral-mediated interferon-beta gene transfer for mesothelioma and metastatic pleural effusion. Mol Ther 2010; 18: 852-60). Extracts from cells or purified proteins were prepared and immunoblotted with patient serum (diluted at 1:1500) from time points before treatment, and 6 weeks after treatment as previously described (Sterman et al., 2010). Multiple exposures were obtained and comparisons were made on the exposures in which the major bands detected on pre-treatment blots were of equal intensity in post-treatment blots.
The blots were semi-quantitatively scored as follows: 0=no change in any bands; 1=minimal changes (i.e. increased intensity in one or two bands); 2=clear increases in >2 bands or appearance of new bands.

[4] = system: serum mesothelin-related protein (SMRP); assay: ELISA of serum mesothelin-related protein (SMRP); type: in vivo, Human; conditions: compared to baseline
From the text: See Supplemental Methods for details.

[5] = system: CD8 T cells and NK cells; assay: Flow cytometry of PBMC: CD69 on CD8 T cells and NK cells; type: in vivo, Human
Method: PBMCs were studied from a set of six patients who responded to therapy and 6 patients who progressed with treatment (Table 6).
PBMC were thawed and the activation of natural killer cell (NK) and T cells was assessed using flow cytometry as detailed in the Supplemental Methods (see also Ref 19).
All mAbs were from BD Biosciences (San Diego, Calif.) and R&D systems (Minneapolis, Minn., USA).
Details of the cell preparation and staining have been previously published (Stevenson J P, Kindler H L, Papasavvas E, et al. Immunological effects of anti-transforming growth factor-beta (TGF-beta) antibody GC1008 in cancer patients with malignant pleural mesothelioma (MPM). Oncoimmunology 2013; 8:e26218). Analysis was done by collecting 100,000 live lymphocytes (defined by size and granularity in FSC and SSC). Dead cells were excluded by manual gating in FSC/SSC. Detection thresholds were set according to isotype-matched negative controls. Results were expressed as Mean Fluorescent Intensity (MFI) and percent (%) of lymphocytes, NK cells (Lin3-CD56dimCD16+), CD3+CD4+ or CD3+CD8+ T cells. Data analysis was performed using FloJo software (Tree Star, San Carlos, Calif.).
Data were described as medians, 25th and 75th percentiles. Comparisons between responders (n=6) and non-responders (n=6) at each time point were done using Wilcoxon Kruskal-Wallis tests (Rank Sums). Differences between time points for all patients (n=12) were tested using Wilcoxon Signed-Rank or paired t-tests depending on data distribution, while differences between time points in responders (n=6) and in non-responders (n=6) were tested using Wilcoxon Signed-Rank. p values that were less than 0.05 were considered statistically significant. All statistics used JMP Pro11®.

[6] = post-treatment serum, 39 patients analysed

## Nc1nc2[nH]cc(CCc3ccc(C(=O)N[C@@H](CCC(=O)O)C(=O)O)cc3)c2c(=O)[nH]1 [pem, pemetrexed]
[1]
  2 yr OS: 30%)
[2]
  Median OS, Average: 11.7 mo
  Response rate, Average: 18%
  TTP/PFS, Average: 5.1 mo

## nadofaragene firadenovec [Ad.IFN]
[3]; patient 402
  Antibody Response: 2
[3]; patient 404
  Antibody Response: 0
[3]; patient 405
  Antibody Response: 2
[3]; patient 406
  Antibody Response: 1
[3]; patient 411
  Antibody Response: 0
[3]; patient 416
  Antibody Response: 0
[3]; patient 417
  Antibody Response: 2
[3]; patient 421
  Antibody Response: 2
[3]; patient 422
  Antibody Response: 2
[3]; patient 423
  Antibody Response: 1
[3]; patient 425
  Antibody Response: 1
[3]; patient 429
  Antibody Response: 1
[3]; [6]
  patients with clear increases in anti-tumor bands: 14 patients
  patients with minimal changes in tumor bands: 14 patients
  patients with no changes in number or intensity of anti-tumor immunoblot bands: 11 patients
[4]; at some time point
  patients with a greater than 20% decrease in SMRP level: 15 of the 27 patients
[4]
  patients with more than a 20% increase in SMRP level: 12 of the 27 patients
[5]; Good Responders, D 2, median
  CD8 T Cells: % Positive for CD69: 26.6 (IQR: 23.2- %
[5]; Good Responders, D 2, median, p = 0.03 vs Baseline
  NK Cells: % Positive for CD69: 66.6* (IQR: 42.1- %
[5]; Good Responders, D 15, median
  CD8 T Cells: % Positive for CD69: 16.6 (IQR: 11.5- %
  NK Cells: % Positive for CD69: 20.9 (IQR: 5.8- %
[5]; Poor Responders, D 2, median
  CD8 T Cells: % Positive for CD69: 22.1 (IQR: 9.9- %
  NK Cells: % Positive for CD69: 33.3 (IQR: 22.8- %
[5]; Poor Responders, D 15, median
  CD8 T Cells: % Positive for CD69: 14.9 (IQR: 10.5- %
  NK Cells: % Positive for CD69: 22.7 (IQR: 13.2- %
